Each block holds one compound with its values, some of them ahead of it.
How the values were obtained:
Rattus norvegicus [1] = assay: Reduction in total plasma cholesterol level in cholesterol-fed Sprague-Dawley rat at 0.2 mg/kg, ip after 24 hrs; assay type: functional; set-up: scale not given: the % may be the effect or the level left; settings: route intraperitoneal
[2] = target: T1, Thyroid hormone receptor alpha (Homo sapiens, UniProt P10827)
T1 sequence (P10827 whole entry): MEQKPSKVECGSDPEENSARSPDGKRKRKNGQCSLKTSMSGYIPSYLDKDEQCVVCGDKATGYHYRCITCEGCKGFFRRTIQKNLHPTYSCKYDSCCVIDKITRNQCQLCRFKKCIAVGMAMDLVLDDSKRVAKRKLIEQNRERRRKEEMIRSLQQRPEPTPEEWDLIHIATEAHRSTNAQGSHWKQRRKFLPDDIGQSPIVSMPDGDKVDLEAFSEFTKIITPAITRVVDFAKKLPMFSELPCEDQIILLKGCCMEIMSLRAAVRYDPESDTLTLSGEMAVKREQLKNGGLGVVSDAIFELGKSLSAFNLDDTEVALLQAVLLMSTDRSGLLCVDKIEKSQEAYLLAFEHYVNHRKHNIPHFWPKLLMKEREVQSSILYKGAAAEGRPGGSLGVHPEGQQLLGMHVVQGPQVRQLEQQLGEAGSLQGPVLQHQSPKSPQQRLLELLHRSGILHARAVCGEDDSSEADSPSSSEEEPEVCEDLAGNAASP
Description: Displacement of [125I]3,5,3'-triiodo-L-thyronine from His-tagged human recombinant TRalpha1 by scintillation proximity assay

[3] = target: T2, Thyroid hormone receptor beta (Homo sapiens, UniProt P10828)
T2 sequence (P10828 whole entry): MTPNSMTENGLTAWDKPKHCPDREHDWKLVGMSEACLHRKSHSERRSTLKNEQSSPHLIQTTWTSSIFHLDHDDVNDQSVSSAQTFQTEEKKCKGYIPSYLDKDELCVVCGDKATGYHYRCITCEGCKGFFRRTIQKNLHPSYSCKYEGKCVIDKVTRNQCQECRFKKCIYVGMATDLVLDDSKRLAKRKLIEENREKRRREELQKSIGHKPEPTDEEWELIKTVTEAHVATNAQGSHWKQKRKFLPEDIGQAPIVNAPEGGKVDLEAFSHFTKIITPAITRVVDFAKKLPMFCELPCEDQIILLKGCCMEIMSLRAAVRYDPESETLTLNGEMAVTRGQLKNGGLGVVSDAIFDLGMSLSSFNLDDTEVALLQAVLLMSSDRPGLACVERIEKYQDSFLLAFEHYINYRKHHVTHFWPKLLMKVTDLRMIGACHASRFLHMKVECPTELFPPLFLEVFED
Description: Displacement of [125I]3,5,3'-triiodo-L-thyronine His-tagged human recombinant TRbeta1 by scintillation proximity assay

Rattus norvegicus [4] = assay: Reduction in total plasma cholesterol level in cholesterol-fed Sprague-Dawley rat at 0.5 mg/kg, po after 24 hrs; assay type: functional; set-up: scale not given: the % may be the effect or the level left
Rattus norvegicus [5] = assay: Reduction in total plasma cholesterol level in cholesterol-fed orally dosed Sprague-Dawley rat after 24 hrs relative to control; assay type: functional; set-up: scale not given: the % may be the effect or the level left
[6] = Metabolic stability in human S9 liver fraction assessed as monoacid levels at 100 uM after 1 hr; assay type: ADME, subcellular; settings: s9, 1 h
[7] = Metabolic stability in human liver S9 fraction assessed as activation rate at 100 uM after 1 hr; assay type: ADME, subcellular; settings: s9, 1 h
Rattus norvegicus [8] = assay: Reduction in total plasma cholesterol level in cholesterol-fed orally dosed Sprague-Dawley rat after 24 hrs; assay type: functional; settings: po
[9] = Metabolic stability in human S9 liver fraction assessed as prodrug remaining at 100 uM after 1 hr; assay type: ADME, subcellular; settings: s9, 1 h
Rattus norvegicus [10] = assay: Agonist activity at thyroid hormone receptor in Sprague-Dawley rat assessed as heart mGPDH activity at 1 mg/kg administered through osmotic pump infusion per ug protein; assay type: functional
Rattus norvegicus [11] = assay: Agonist activity at thyroid hormone receptor in Sprague-Dawley rat assessed as liver mGPDH activity at 1 mg/kg administered through osmotic pump infusion per ug protein; assay type: functional

Ki [2]: 30.5 nM
Structure (SMILES): CCC(C)c1cc(Cc2c(C)cc(OCP(=O)(O)O)cc2C)ccc1O (stereo not given)
Activity (Rattus norvegicus [1]): 20.1%

Structure (SMILES): CC(C)c1cc(Oc2c(Br)cc(OCP(=O)(O)O)cc2Br)ccc1O
Activity (Rattus norvegicus [1]): 42.6%

Structure (SMILES): CC(C)c1cc(Oc2c(I)cc(OCP(=O)(O)O)cc2I)ccc1O
Activity (Rattus norvegicus [1]): 44.7%

Ki [3]: 25.4 nM | Ki [2]: 183 nM
Structure (SMILES): Cc1cc(OCP(=O)(O)O)cc(C)c1Oc1ccc(O)c(C(C)C)c1

Structure (SMILES): CCOC(=O)OCOP(=O)(COc1cc(C)c(Cc2ccc(O)c(C(C)C)c2)c(C)c1)OCOC(=O)OCC
Activity (Rattus norvegicus [4]): 24%

Stability [6]: 6% | Stability [7]: 73 pmol/min/mg | Stability [9]: 70%
Structure (SMILES): CCOC(=O)CNP(=O)(COc1cc(C)c(Cc2ccc(O)c(C(C)C)c2)c(C)c1)NCC(=O)OCC
Activity (Rattus norvegicus [5]): 48% | Activity (Rattus norvegicus [4]): 42% | ED50 (Rattus norvegicus [8]): 0.1 mg/kg

Structure (SMILES): CCOC(=O)[C@H](C)NP(=O)(COc1cc(C)c(Cc2ccc(O)c(C(C)C)c2)c(C)c1)N[C@@H](C)C(=O)OCC
Activity (Rattus norvegicus [4]): 42%

Structure (SMILES): CCOC(=O)C(C)(C)NP(=O)(COc1cc(C)c(Cc2ccc(O)c(C(C)C)c2)c(C)c1)NC(C)(C)C(=O)OCC
Activity (Rattus norvegicus [4]): 23%

Structure (SMILES): O=P(O)(O)Cc1cc(I)c(Oc2ccc(O)c(I)c2)c(I)c1
Activity (Rattus norvegicus [10]): 1.74 U/min | Activity (Rattus norvegicus [11]): 5.38 U/min

Structure (SMILES): CC(=O)SCCOP(=O)(COc1cc(C)c(Cc2ccc(O)c(C(C)C)c2)c(C)c1)OCCSC(C)=O
Activity (Rattus norvegicus [4]): 20%

Structure (SMILES): Cc1cc(OCP(=O)(OCOC(=O)OC(C)C)OCOC(=O)OC(C)C)cc(C)c1Cc1ccc(O)c(C(C)C)c1
Activity (Rattus norvegicus [4]): 24%

Ki [3]: 0.47 nM | Ki [2]: 0.51 nM
Structure (SMILES): Cc1cc(NC(=O)C(=O)O)cc(C)c1Oc1ccc(O)c(C(C)C)c1

Ki [3]: 9.1 nM | Ki [2]: 28.4 nM
Structure (SMILES): Cc1cc(NCP(=O)(O)O)cc(C)c1Cc1ccc(O)c(C(C)C)c1
Activity (Rattus norvegicus [1]): 32.3%

Structure (SMILES): CCc1cc(Cc2c(C)cc(OCP(=O)(O)O)cc2C)ccc1O
Activity (Rattus norvegicus [1]): 7.5%

Ki [3]: 2.5 nM | Ki [2]: 42.1 nM
Structure (SMILES): CC(C)c1cc(Oc2c(Br)cc(CCP(=O)(O)O)cc2Br)ccc1O
Activity (Rattus norvegicus [1]): 34.5%

Structure (SMILES): CCOC(=O)[C@H](Cc1ccccc1)NP(=O)(COc1cc(C)c(Cc2ccc(O)c(C(C)C)c2)c(C)c1)N[C@@H](Cc1ccccc1)C(=O)OCC
Activity (Rattus norvegicus [4]): 0%

Structure (SMILES): CCOC(=O)[C@@H](NP(=O)(COc1cc(C)c(Cc2ccc(O)c(C(C)C)c2)c(C)c1)N[C@H](C(=O)OCC)C(C)C)C(C)C
Activity (Rattus norvegicus [4]): 13%

Reference: ChEMBL document CHEMBL1152303, “Synthesis and biological evaluation of a series of liver-selective phosphonic acid thyroid hormone receptor agonists and their prodrugs” (J Med Chem, 2008)
